Results on three substances are retold here after patent US10426815B2, “Prevention and treatment of itch with an MRGPR antagonist” (THE GENERAL HOSPITAL CORPORATION, priority 2015, dated 2019).

Test [1] has as its target T1, PAR2 (Homo sapiens, UniProt P55085).
T1 construct: expressed in transfected cells; host or cells: HeLa cells by analogy with the other receptors
T1 sequence (P55085 26-397): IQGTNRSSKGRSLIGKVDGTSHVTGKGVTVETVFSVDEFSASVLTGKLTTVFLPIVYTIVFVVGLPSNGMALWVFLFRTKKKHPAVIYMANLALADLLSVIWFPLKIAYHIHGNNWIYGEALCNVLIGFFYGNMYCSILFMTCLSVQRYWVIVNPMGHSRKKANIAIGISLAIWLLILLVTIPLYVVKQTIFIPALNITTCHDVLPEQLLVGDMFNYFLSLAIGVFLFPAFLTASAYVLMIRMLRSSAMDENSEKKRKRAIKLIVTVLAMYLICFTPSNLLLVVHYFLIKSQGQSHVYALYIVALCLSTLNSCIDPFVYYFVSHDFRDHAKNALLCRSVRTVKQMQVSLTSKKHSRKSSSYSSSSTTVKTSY
Briefly: Calcium imaging of cells transfected with the GPCR (Table 1). In kind it is cell-based.

The test system of test [2] is dorsal root ganglion neurons from NK1 mice. Nature of the test: DRG culture and calcium imaging, NK1 knockout mice. It is filed as cell-based, mouse. On the procedure: (§1) Cervical to lumbar dorsal root ganglia (DRG) from C57/B6 or NK1 mice (1 month old) were dissected and maintained in DMEM (GIBCO, Langley, Okla., USA), containing […] L-glutamine (FISHER […], Pittsburgh, Pa., USA), 10% heat inactivated fetal bovine serum (GIBCO, Langley, Okla., USA), 5000 U/ml penicillin and 5000 μg/ml streptomycin (FISHER […], Pittsburgh, Pa., USA). Enzymatic digestion was carried out with 1 mg collagenase in 1 ml dispase (ROCHE Applied Sciences, IN, USA), at 37° C. for 70 min. The collagenase/dispase solution was removed, and DRGs were washed and suspended in DMEM containing 125 U DNAse (SIGMA, St Louis, USA) within which the ganglia were mechanically triturated using fire-polished glass pipettes. […] Cells were evaluated using a NIKON Eclipse Ti inverted microscope equipped with an Exi Aqua CCD camera (QIMAGING, British Columbia, Canada). Ca^2+ flux fluorescence was measured as an […] ratio at 340 nm and 380 nm (F340/380) (Lambda DG4, Sutter Instruments, Novato, Calif., US). The 340/380 ratiometric images were analyzed using NIKON Elements AR Software (NIKON, Melville, N.Y. USA). […]

Test [3] has as its system WT DRGs. Nature of the test: DRG culture and calcium imaging, WT mice. In kind it is cell-based, mouse. On the procedure: as §1
Test [4] concerns the target T2, MrgX3 (human MRGPRX3) (Homo sapiens, UniProt Q96LB0).
T2 construct: expressed in transfected cells; host or cells: HeLa cells, pcDNA3.1(-)
Briefly: Calcium imaging of cells transfected with the GPCR (Table 1). In kind it is cell-based. The following applies: SP 10 μM (FIG. 9). On the procedure: Human NK1 cDNA was obtained from LIFE Technologies, PCR cloned with Xho I-Hind III ends and cloned into pcDNA3.1(−). Mouse NK2 and NK3 expression-ready vectors were obtained from […] (Piscataway, N.J.). All other Mrgprs (human MRGPRX1, human MRGPRX2, human MRGPRX3, human MRGPRX4, mouse MrgprA2a, mouse MrgprA2b, mouse MrgprA3, mouse MrgprA4, mouse MrgprA9, mouse MrgprA10, mouse MrgprB4 and mouse MrgprB5) were cloned by PCR from genomic DNAs and inserted into pcDNA3.1 (−).
10 μg of expression vector (human MRGPRX2, mouse MrgprA1 or NK1) and 10 μl of LIPOFECTAMINE 2000 transfection reagent were diluted into 0.5 ml of DMEM and separately left at room temperature (RT) for 5 min. They were then mixed and incubated at RT for 20 minutes prior to being added to HeLa cells. HeLa cells were grown to confluence, trypsinized and 1×10^6 cells were pelleted in a 15 ml tube by centrifugation at 1000 rpm for 5 minutes. […]
Calcium imaging was performed immediately after loading cells with Fura-2, using a ZEISS Axiovert 200M microscope platform equipped with a flipping filter wheel for ratiometric imaging. […] The software later analyzed all images taken during each excitation period. Ratiometric changes were measured in 10-20 cells in each individual experiment. An average of the fluorescence of the cells in each image was calculated and plotted against time in seconds. […]

Entries after “also recorded” stand apart in the source; their conditions may differ.

T2 sequence (Q96LB0 whole entry): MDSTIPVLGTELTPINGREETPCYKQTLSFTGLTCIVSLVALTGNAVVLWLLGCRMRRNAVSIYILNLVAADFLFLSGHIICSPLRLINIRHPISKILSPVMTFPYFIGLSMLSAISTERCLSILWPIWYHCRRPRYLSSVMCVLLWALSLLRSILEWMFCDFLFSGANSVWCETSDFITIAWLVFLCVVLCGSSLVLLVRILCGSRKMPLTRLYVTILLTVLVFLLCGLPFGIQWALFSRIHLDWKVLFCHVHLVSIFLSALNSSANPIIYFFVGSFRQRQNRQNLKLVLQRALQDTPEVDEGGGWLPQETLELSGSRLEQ

Consider “Boc-Gln-D-Trp(Formyl)-Phe benzyl ester trifluoroacetate [QWF]”, for which, in test [1], the “inhibition of PAR2 activation by 48/80” value is given as “antagonizes” and the “inhibition of PAR2 activation by SLIGRL” value is given as “not”. Further, the “inhibition of SP-induced activation of NK1 knockout DRG neurons” value in test [2] (QWF 1 μM) is “significantly diminished; also recorded: blocked; also recorded: inhibits; also recorded: significantly decreases”. In test [3], the “decrease of the response of WT DRGs to compound 48/80” value is on record as “significantly decreases”.
As for “SLIGRL: tethered hexapeptide ligand of mouse PAR2 (SEQ ID NO: 7)”, the “activation of PAR2 by the substance (in words)” value in test [1] is listed as “activates”.
Take “SP: inflammatory undecapeptide neuropeptide of the tachykinin family, synthesized by GenScript”: the “activation of hMRGPRX3 by the substance (in words)” value in test [4] was “does not activate”. For the same substance, in test [2] (cultured DRGs, calcium imaging), the “activation of NK1 knockout DRG neurons by SP” value is “activated”.
